“Also recorded” adds a separate entry of the source.
How the values were obtained:
[1] = test system: CD-associated E. coli strain AIEC LF82; assay: Hemagglutination inhibition (HAI) with AIEC LF82, guinea pig erythrocytes; assay type: cell-based, Escherichia coli
Method: AIEC adhesion to the gut occurs through the binding of FimH adhesins to the mannosylated glycans of intestinal cells. This scenario was first mimicked here with the highly mannosylated glycocalyx of guinea pig erythrocytes.
A two-fold dilution series of the antagonists was added to wells containing guinea pig erythrocytes and AIEC LF82 bacteria. The formation of the cross-linked network (hemagglutination) due to the interaction of the E. coli FimH adhesins with the glycocalyx of the erythrocytes was prevented at a certain concentration of inhibitors. The lowest concentration at which hemagglutination is still inhibited is defined as the inhibition titer of the antagonist. HM was included in the assay to obtain a relative inhibitory concentration (rIC) for the antagonists by dividing the inhibitory concentration (IC) of the substance of interest by the value for HM. In fact, rICs are more accurate than rough inhibition titers to compare the potency of antagonists evaluated in different assays.

[2] = test system: AIEC strain LF82 adhesion to T84 intestinal epithelial cells; assay: Adhesion assay on T84 cells with thiazolylaminomannosides (Example 22.3); assay type: cell-based, Escherichia coli; conditions: for Inhibitory effect on adhesion: 100 nM; for inhibition at 10 µM: Escherichia coli, Epithelial cell, read-out: Inhibition of adhesion
Method: T84 Intestinal Epithelial cells (overexpressing the receptor CEACAM6) were beforehand incubated for 1 h with the synthetic thiazolylaminomannosides 6-20 (examples 3-17) at different concentrations. Each compound was tested four times at concentrations of 0.1, 1, 10 and 100 μM.
The cells were then infected in the presence of inhibitory compounds by the AIEC strain of reference LF82 for 3 hours at a multiplicity of infection of 10 bacteria to a cell. After 3 h of incubation, the monolayer was washed and the number of AIEC bacteria associated with cells was counted. The level of adhesion of AIEC LF82 strain in the presence of inhibitors (residual adhesion) was expressed relatively to the level of adherence in the absence of any treatment (considered 100%) (FIG. 10).

[3] = target: FimH (Escherichia coli, UniProt P08191); assay type: binding; conditions: competitive ELISA; for Concentration blocking FimH binding towards oligomannose glycans: RNAseB substrate
Method: Journal of the American Society for Mass Spectrometry, 2009. […] Tested compounds were added to wells following with FimH treatment.
Plates were coated with 100 μl of 10 mg/ml solution of RNAse-B in 100 mM carbonate/bicarbonate buffer pH 9.6. […] 2 h. Then washed three times with 10 mM PBS containing 0.05% Tween-20. […] Wells were washed three times with 10 mM PBS+0.05% Tween-20. 100 μl of anti-body conjugated to horseradish peroxidase (1:5000) was added in buffer and incubated for 1 h at room temperature. Then washed three times with 10 mM PBS+0.05% Tween-20. Added 100 μl of TMB and incubated in dark for 2-5 min. The reaction was stopped with 100 μl/well 1N sulfuric acid. Plate absorbance was analyzed at 450 nm using microplate reader.

[4] = test system: AIEC LF82 bacteria adhesion to T84 intestinal epithelial cells; assay: Adhesion assay on T84 cells, pre-, co- and post-incubation protocols (Example 21.2); assay type: cell-based, Escherichia coli; conditions: pre-incubation assay
Method: E. coli strain LF82 was isolated from a chronic ileal lesion of a patient with Crohn's disease (CD). Bacteria were grown routinely in Luria-Bertani (LB) broth overnight at 37° C. Intestinal epithelial cells T84 derived from colonic adenocarcinoma were maintained in an atmosphere containing 5% CO2 at 37° C. in DMEM/F12 (50/50) medium supplemented with 10% (v/v) heat-inactivated fetal calf serum (FCS), 1% L-glutamine, 100 000 U·l^−1 penicillin, 100 mg·l^−1 streptomycin, 25 μg·l^−1 amphotericin B.
T84 were seeded in 48-well plates at a concentration of 1.5×10^5 cells per well and grown for 48 h. AIEC LF82 bacteria were incubated 1 h with each mannoside prior the cell infection (pre-incubation protocol) or they were added simultaneously onto the cells (co-incubation protocol) in complete medium without antibiotics, containing heat inactivated fetal calf serum (FCS). Heptyl-mannose or compound 2 (example 1) were tested at a dose of 100; 10; 1 or 0.1 μM. D-D-mannose was tested at a dose of 10 000; 1 000; 100 or 10 μM and compound 1 (example 2bis) was tested at a concentration of 500; 100; 10 or 1 μM. Cells were infected with AIEC LF82 bacteria at a multiplicity of infection (MOI) of 10 bacteria per cell for 3 h at 37° C. For the post-incubation protocol, mannosides were incubated with cells for 3 h after bacterial infection. A washing step was realized before this post-incubation to eliminate non-adherent bacteria. Monolayers were washed in phosphate-buffered saline (PBS; pH 7.2) and cells were then lysed with 1% Triton X-100 in deionized water. Samples were diluted and plated onto Luria Bertani agar plates to determine the number of colony-forming units (CFU) recovered from the lysed monolayers. Results were expressed as percentages of residual adhesion, considering adhesion level of AIEC LF82 without mannoside treatment as 100%.

[5] = test system: AIEC LF82 bacteria on colonic tissue from transgenic mice expressing human CEACAM6; assay: Ex-vivo adhesion assay on colonic tissue of CEABAC10 mice; design: species or system CEABAC10 transgenic mice; conditions: 1 h
Method: E. coli strain LF82 was isolated from a chronic ileal lesion of a patient with Crohn's disease (CD). Bacteria were grown routinely in Luria-Bertani (LB) broth overnight at 37° C.
Adhesion assay of AIEC LF82 bacteria were performed using colonic tissue from transgenic mice expressing the human CEACAM6 protein (C. H. Chan, C. P. Stanners “Novel mouse model for carcinoembryonic antigen-based therapy”, Mol Ther. 2004; 9, 775-785). Briefly, 10 to 12-week-old FVB/N CEABAC10 transgenic mice were anesthetized, euthanized by cervical dislocation and colons were removed. Colons were washed twice in phosphate buffer saline (PBS) and were segmented in 4 independent loops of ≈0.6 cm. A volume of 100 μL of LF82 bacteria at 2×10^6 bacteria/mL in PBS or of a mix of LF82 bacteria+D-mannose (1 μmol and 10 μmol) or compound 13 (0.1 μmol and 0.01 μmol) were injected into the loops. Loops were incubated 1 h at 37° C. in an atmosphere containing 5% of CO2, and then opened and washed 4 times in PBS. Tissues were homogenized, appropriately diluted and plated onto Luria-Bertani agar plates containing ampicillin (100 μg/mL) and erythromycin (20 μg/mL) to select AIEC LF82 bacteria.
Entire colons from CEABAC10 mice were collected and washed two times with PBS. The colon was divided in 4 isolated loops and 100 μL of a bacterial suspension containing […] bacteria/mL with or without inhibitory compounds were injected into the loops. D-mannose was tested at a dose of 1 and 10 μmol and monovalent 13 was tested at a dose of 0.01 and 0.1 μmol. After a 1 h-period of incubation, samples were extensively washed and homogenized to numerate adherent bacteria. Bacterial adhesion was expressed as percentages of residual adhesion (100% corresponds to the adhesion in absence of any compound).

Sequence of FimH (P08191 22-300): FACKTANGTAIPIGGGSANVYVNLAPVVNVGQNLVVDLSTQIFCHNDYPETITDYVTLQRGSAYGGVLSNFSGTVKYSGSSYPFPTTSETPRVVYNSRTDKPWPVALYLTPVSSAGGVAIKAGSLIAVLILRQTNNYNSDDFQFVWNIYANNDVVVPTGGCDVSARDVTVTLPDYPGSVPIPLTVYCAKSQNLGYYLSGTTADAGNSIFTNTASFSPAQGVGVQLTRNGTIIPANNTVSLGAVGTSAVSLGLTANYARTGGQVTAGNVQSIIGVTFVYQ

How did the “Inhibitory potency in HAI (in words)” value [1] turn out when N#Cc1ccc(C(=O)c2cnc(N[C@H]3O[C@H](CO)[C@@H](O)[C@H](O)[C@@H]3O)s2)cc1 [Compound 20, 2-(α-D-mannopyranosyl)amino-5-(4-cyanobenzoyl)thiazole] was run?
The value was “less potent than the unsubstituted phenyl analogue 8”.

O=C(c1ccc([N+](=O)[O-])cc1)c1cnc(N[C@H]2O[C@H](CO)[C@@H](O)[C@H](O)[C@@H]2O)s1 [Compound 10, 2-(α-D-mannopyranosyl)amino-5-(4-nitrobenzoyl)thiazole] was tested. Which “Inhibitory potency in HAI (in words)” value [1] did it give?
Its value is “less potent than the unsubstituted phenyl analogue 8”.

What about the “Inhibitory effect on adhesion” value [2] of the same compound?
Its value is “significant inhibitory effect”.

What about the inhibition at 10 µM [2] of the same compound?
The inhibition at 10 µM was greater than 90%.

With O=C(c1ccccc1)c1cnc(N[C@H]2O[C@H](CO)[C@@H](O)[C@H](O)[C@@H]2O)s1 [Compound 8, 2-(α-D-mannopyranosyl)amino-5-benzoylthiazole] as the compound, how does the “Level of inhibition compared to the HM reference” value [3] read?
Its value is “significantly higher level of inhibition”.

What about the “Concentration blocking FimH binding towards oligomannose glycans” value [3] of the same compound?
Its value is 5 nM.

What about the “Inhibitory effect on adhesion” value [2] of the same compound?
Its value is “significant inhibitory effect”.

O=C(c1ccc(Br)cc1)c1cnc(N[C@H]2O[C@H](CO)[C@@H](O)[C@H](O)[C@@H]2O)s1 [Compound 19, 2-(α-D-mannopyranosyl)amino-5-(4-bromobenzoyl)thiazole] was tested. Which inhibition at 10 µM [2] did it give?
Its inhibition at 10 µM is greater than 90%.

With Cc1ccc(C(=O)c2cnc(N[C@H]3O[C@H](CO)[C@@H](O)[C@H](O)[C@@H]3O)s2)cc1 [Compound 11, 2-(α-D-mannopyranosyl)amino-5-(4-methylbenzoyl)thiazole] as the compound, how does the “Concentration blocking FimH binding towards oligomannose glycans” value [3] read?
Its value is 50 nM.

O=C(c1cnc(N[C@H]2OC(CO)[C@@H](O)C(O)C2O)s1)C12CC3CC(CC(C3)C1)C2 (stereo partly drawn) [Compound 16, 5-((3r,5r,7r)-adamantane-1-carbonyl)-2-(α-D-mannopyranosyl)aminothiazole] was tested. Which “Inhibitory potency in HAI (in words)” value [1] did it give?
Its value is “significant improvement”.

And the “Inhibitory effect on adhesion” value [2]?
Its value is “significant inhibitory effect”.

For O=C(c1cnc(N[C@H]2O[C@H](CO)[C@@H](O)[C@H](O)[C@@H]2O)s1)C(F)(F)F [Compound 7, 2-(α-D-mannopyranosyl)amino-5-trifluoroacetylthiazole], which “Concentration blocking FimH binding towards oligomannose glycans” value [3] is on record?
The value was 50 nM.

What about the “Inhibitory potency in HAI (in words)” value [1] of the same compound?
Its value is “less potent than HM; also recorded: significantly less potent than 6”.

O=C(c1ccncc1)c1cnc(N[C@H]2O[C@H](CO)[C@@H](O)[C@H](O)[C@@H]2O)s1 [Compound 17, 2-(α-D-mannopyranosyl)amino-5-isonicotinoylthiazole] was tested. Which inhibition at 10 µM [2] did it give?
Its inhibition at 10 µM is greater than 90%.

CC(C)(C)C(=O)c1cnc(N[C@H]2OC(CO)[C@@H](O)C(O)C2O)s1 (stereo partly drawn) [Compound 9, 2-(α-D-mannopyranosyl)amin-5-tert-butylcarbonylthiazole] was tested. Which “Concentration blocking FimH binding towards oligomannose glycans” value [3] did it give?
Its value is 50 nM.

Which “Concentration blocking FimH binding towards oligomannose glycans” value [3] does the source give for O=C(c1ccsc1)c1cnc(N[C@H]2OC(CO)[C@@H](O)[C@H](O)C2O)s1 (mixture of isomers) [Compound 12, 2-(α-D-mannopyranosyl)amino-5-(thiophene-3-carbonyl)thiazole] here?
The value was 50 nM.

With O=C(c1cccs1)c1cnc(N[C@H]2OC(CO)[C@@H](O)[C@H](O)C2O)s1 (mixture of isomers) [Compound 14, 2-(α-D-mannopyranosyl)amino-5-(thiophene-2-carbonyl)thiazole] as the compound, how does the “Concentration blocking FimH binding towards oligomannose glycans” value [3] read?
Its value is 50 nM.

Which results are given for OC[C@H]1O[C@H](O)[C@@H](O)[C@@H](O)[C@@H]1O [D-mannose, α-D-mannose, reference compound]?
Concentration leading to decreased adhesion levels of at least 50% [4]: 1000 µM; Residual adhesion ([2]; 1000 μM): 51.6%; Bacterial adhesion ([5]; 1 μmol): no decrease; Bacterial adhesion (residual) ([5]; dose of 10 μmol): 41%

— patent US10273313B2, “Multimeric mannosides, a process for preparing the same and their uses as a drug” (CENTRE NATIONAL DE LA RECHERCHE SCIENTIFIQUE, priority 2012, dated 2019)
